What was measured:
D(3) dopamine receptor = D(3) dopamine receptor (Homo sapiens, UniProt P35462); test: Displacement of [3H]N-methylspiperone from dopamine D3 receptor (unknown origin) after 90 mins by scintillation counting analysis
[1] = target: T1, 5-hydroxytryptamine receptor 3A (Mus musculus, UniProt P23979); test: Displacement of [3H]LY278584 from mouse 5-HT3A receptor
T1 sequence (P23979 whole entry): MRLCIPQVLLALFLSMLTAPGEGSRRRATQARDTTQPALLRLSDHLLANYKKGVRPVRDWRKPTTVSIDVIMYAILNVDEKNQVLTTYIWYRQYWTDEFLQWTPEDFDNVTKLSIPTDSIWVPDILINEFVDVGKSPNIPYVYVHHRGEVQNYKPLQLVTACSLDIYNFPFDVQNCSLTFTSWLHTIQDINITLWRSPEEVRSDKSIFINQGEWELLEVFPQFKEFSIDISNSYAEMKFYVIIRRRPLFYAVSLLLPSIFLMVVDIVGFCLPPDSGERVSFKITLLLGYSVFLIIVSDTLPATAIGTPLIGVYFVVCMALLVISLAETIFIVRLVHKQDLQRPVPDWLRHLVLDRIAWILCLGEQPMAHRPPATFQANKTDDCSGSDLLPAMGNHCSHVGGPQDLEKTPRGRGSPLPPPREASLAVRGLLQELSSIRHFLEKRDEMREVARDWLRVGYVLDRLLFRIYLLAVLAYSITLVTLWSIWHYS

[2] = target: 5-hydroxytryptamine receptor 2A (Homo sapiens, UniProt P28223); test: Displacement of [3H]Ketanserin from human recombinant 5-HT2A receptor expressed in HEK cells after 90 mins by scintillation counting analysis; type: cell-based, HEK293
Mus musculus [3] = test: Toxicity in ICR mouse assessed as total movement time at 1 to 3 mg/kg, ip after 15 to 45 mins by locomotor activity assay relative to vehicle-treated control; type: organism-based; set-up: route intraperitoneal; details: in vivo
Mus musculus [4] = test: Toxicity in ICR mouse assessed as total movement distance at 1 to 3 mg/kg, ip after 15 to 45 mins by locomotor activity assay relative to vehicle-treated control; type: organism-based; set-up: route intraperitoneal; details: in vivo
[5] = target: 5-hydroxytryptamine receptor 2B (Homo sapiens, UniProt P41595); test: Displacement of [3H]LSD from human recombinant 5-HT2B receptor expressed in HEK cells after 90 mins by scintillation counting analysis; type: cell-based, HEK293
[6] = target: 5-hydroxytryptamine receptor 5A (Homo sapiens, UniProt P47898); test: Displacement of [3H]LSD from human recombinant 5-HT5A receptor expressed in CHO cells after 90 mins by scintillation counting analysis; type: cell-based
Chain of 5-hydroxytryptamine receptor 5A (P47898 whole entry): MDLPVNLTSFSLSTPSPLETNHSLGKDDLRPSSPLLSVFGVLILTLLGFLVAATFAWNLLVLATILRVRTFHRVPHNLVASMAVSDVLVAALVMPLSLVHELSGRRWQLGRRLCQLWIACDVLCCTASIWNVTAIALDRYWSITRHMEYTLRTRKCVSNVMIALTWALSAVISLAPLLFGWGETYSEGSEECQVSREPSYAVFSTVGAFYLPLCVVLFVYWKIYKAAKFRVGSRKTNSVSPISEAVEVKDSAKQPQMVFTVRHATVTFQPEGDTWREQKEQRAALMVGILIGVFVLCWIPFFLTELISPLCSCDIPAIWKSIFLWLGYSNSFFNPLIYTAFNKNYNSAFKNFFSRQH

[7] = target: 5-hydroxytryptamine receptor 1B (Homo sapiens, UniProt P28222); test: Displacement of [3H]5-CT from human recombinant 5-HT1B receptor expressed in HEK cells after 90 mins by scintillation counting analysis; type: cell-based, HEK293
Chain of 5-hydroxytryptamine receptor 1B (P28222 whole entry): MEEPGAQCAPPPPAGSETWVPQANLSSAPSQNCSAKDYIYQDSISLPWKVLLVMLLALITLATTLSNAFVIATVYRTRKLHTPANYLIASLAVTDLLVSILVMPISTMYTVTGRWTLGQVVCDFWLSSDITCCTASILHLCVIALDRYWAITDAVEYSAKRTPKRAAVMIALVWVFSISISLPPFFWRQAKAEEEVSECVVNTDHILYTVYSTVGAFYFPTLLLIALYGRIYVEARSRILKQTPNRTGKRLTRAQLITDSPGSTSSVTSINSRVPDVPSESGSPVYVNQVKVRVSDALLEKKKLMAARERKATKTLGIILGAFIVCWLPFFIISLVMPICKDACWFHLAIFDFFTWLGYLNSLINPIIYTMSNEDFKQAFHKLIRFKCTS

[8] = target: Muscarinic acetylcholine receptor M3 (Homo sapiens, UniProt P20309); test: Binding affinity to human recombinant muscarinic M3 receptor expressed in CHO cells after 90 mins by radioligand displacement assay; type: cell-based
[9] = target: Beta-3 adrenergic receptor (Homo sapiens, UniProt P13945); test: Binding affinity to human recombinant beta3-adrenoceptor expressed in HEK cells after 90 mins by radioligand displacement assay; type: cell-based, HEK293
D(1B) dopamine receptor = D(1B) dopamine receptor (Homo sapiens, UniProt P21918); test: Displacement of [3H]SCH23390 from human recombinant dopamine D5 receptor expressed in HEK cells after 90 mins by scintillation counting analysis; type: cell-based, HEK293
Chain of D(1B) dopamine receptor (P21918 whole entry): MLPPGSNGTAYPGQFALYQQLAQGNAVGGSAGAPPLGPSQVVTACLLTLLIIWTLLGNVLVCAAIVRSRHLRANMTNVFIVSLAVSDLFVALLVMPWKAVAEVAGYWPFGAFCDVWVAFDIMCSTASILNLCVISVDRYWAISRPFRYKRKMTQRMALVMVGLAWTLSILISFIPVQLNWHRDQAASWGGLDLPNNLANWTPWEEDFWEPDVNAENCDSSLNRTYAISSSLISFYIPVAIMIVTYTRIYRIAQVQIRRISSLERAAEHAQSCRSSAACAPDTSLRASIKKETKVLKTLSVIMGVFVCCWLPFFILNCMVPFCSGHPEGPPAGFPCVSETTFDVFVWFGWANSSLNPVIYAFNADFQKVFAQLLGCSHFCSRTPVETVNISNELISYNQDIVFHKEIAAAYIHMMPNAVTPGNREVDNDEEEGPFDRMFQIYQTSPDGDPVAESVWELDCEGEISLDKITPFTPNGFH

[10] = target: Alpha-1B adrenergic receptor (Homo sapiens, UniProt P35368); test: Displacement of [3H]Prazosin from human recombinant alpha1B-adrenoceptor expressed in HEK cells after 90 mins by scintillation counting analysis; type: cell-based, HEK293
[11] = target: Beta-2 adrenergic receptor (Homo sapiens, UniProt P07550); test: Displacement of [3H]CGP12177 from human recombinant beta2-adrenoceptor expressed in HEK cells after 90 mins by scintillation counting analysis; type: cell-based, HEK293
[12] = target: Neuronal acetylcholine receptor; alpha3/beta2 (Homo sapiens, UniProt P17787+P32297); test: Displacement of [3H]-epibatidine from human alpha3beta2 nAChR transfected in HEK293 cells by scintillation counting analysis; type: cell-based
Chain of Neuronal acetylcholine receptor; alpha3/beta2 (P17787 whole entry): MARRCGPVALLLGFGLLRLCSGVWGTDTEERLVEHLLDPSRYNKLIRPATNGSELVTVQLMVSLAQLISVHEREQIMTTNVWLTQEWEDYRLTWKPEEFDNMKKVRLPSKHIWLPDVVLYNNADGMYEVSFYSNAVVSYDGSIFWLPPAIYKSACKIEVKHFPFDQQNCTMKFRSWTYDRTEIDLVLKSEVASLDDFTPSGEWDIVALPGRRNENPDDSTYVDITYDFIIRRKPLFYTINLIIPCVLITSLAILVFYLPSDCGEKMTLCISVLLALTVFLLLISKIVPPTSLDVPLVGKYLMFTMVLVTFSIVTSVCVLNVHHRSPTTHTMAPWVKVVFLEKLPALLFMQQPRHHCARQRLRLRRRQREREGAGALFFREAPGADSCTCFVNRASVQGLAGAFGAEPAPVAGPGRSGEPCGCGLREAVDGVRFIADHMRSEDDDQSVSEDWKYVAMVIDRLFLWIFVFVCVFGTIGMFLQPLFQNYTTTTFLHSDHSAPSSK
Chain of Neuronal acetylcholine receptor; alpha3/beta2 (P32297 whole entry): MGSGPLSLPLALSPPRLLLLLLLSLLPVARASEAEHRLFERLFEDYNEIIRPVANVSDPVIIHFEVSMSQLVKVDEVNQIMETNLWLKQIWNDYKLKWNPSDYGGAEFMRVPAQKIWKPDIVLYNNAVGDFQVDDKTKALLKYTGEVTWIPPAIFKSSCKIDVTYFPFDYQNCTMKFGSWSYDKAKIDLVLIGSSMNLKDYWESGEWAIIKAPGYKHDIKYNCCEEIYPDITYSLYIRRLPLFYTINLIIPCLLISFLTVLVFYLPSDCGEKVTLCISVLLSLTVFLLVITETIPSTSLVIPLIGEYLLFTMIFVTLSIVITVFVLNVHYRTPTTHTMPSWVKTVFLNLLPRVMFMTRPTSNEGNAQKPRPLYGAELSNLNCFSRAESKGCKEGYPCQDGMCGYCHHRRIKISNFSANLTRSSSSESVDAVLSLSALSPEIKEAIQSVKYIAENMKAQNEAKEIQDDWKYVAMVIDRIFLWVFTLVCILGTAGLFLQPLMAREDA

Mus musculus [13] = test: Antidepressant activity in ip dosed ICR mouse assessed as immobility time by tail suspension test; type: functional
[14] = target: 5-hydroxytryptamine receptor 7 (Homo sapiens, UniProt P34969); test: Displacement of [3H]LSD from human recombinant 5-HT7 receptor expressed in HEK cells after 90 mins by scintillation counting analysis; type: cell-based, HEK293
Chain of 5-hydroxytryptamine receptor 7 (P34969 whole entry): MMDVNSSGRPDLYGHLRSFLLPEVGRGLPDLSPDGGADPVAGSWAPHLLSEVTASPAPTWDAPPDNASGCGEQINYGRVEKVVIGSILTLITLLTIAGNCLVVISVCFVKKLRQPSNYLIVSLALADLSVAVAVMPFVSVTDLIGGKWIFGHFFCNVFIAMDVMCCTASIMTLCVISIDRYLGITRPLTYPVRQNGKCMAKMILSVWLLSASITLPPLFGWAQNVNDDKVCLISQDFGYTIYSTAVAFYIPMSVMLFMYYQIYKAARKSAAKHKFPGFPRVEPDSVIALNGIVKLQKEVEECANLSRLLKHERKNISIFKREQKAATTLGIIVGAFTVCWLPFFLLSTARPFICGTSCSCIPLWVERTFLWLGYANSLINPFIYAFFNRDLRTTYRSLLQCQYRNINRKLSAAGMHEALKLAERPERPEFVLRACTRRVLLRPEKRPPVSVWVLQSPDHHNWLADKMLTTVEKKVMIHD

[15] = Displacement of [3H]DTG from sigma2 receptor (unknown origin) expressed in rat PC12 cells after 90 mins by scintillation counting analysis; type: cell-based, Homo sapiens; details: pc-12
[16] = target: Alpha-2B adrenergic receptor (Homo sapiens, UniProt P18089); test: Displacement of [3H]Rauwolscine from human recombinant alpha2B-adrenoceptor expressed in HEK cells after 90 mins by scintillation counting analysis; type: cell-based, HEK293
Chain of Alpha-2B adrenergic receptor (P18089 whole entry): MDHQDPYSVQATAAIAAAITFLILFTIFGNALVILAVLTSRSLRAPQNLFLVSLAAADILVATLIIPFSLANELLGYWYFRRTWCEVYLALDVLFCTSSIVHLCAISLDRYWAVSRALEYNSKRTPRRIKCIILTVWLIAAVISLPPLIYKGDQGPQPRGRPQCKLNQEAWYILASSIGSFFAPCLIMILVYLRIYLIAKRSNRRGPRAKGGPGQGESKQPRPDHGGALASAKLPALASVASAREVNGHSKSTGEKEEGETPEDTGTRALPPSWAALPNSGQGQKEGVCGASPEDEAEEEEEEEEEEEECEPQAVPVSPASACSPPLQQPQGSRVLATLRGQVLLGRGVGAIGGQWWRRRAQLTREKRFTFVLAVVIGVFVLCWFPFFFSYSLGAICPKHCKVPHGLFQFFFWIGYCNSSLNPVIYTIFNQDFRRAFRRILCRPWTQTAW

[17] = target: Kappa-type opioid receptor (Homo sapiens, UniProt P41145); test: Displacement of [3H]U69593 from kappa opioid receptor (unknown origin) expressed in HEK cells after 90 mins by scintillation counting analysis; type: cell-based, HEK293
[18] = target: Muscarinic acetylcholine receptor M2 (Homo sapiens, UniProt P08172); test: Binding affinity to human recombinant muscarinic M2 receptor expressed in CHO cells after 90 mins by radioligand displacement assay; type: cell-based
[19] = target: Delta-type opioid receptor (Homo sapiens, UniProt P41143); test: Displacement of [3H]DADLE from human recombinant delta opioid receptor expressed in HEK cells after 90 mins by scintillation counting analysis; type: cell-based, HEK293
Chain of Delta-type opioid receptor (P41143 whole entry): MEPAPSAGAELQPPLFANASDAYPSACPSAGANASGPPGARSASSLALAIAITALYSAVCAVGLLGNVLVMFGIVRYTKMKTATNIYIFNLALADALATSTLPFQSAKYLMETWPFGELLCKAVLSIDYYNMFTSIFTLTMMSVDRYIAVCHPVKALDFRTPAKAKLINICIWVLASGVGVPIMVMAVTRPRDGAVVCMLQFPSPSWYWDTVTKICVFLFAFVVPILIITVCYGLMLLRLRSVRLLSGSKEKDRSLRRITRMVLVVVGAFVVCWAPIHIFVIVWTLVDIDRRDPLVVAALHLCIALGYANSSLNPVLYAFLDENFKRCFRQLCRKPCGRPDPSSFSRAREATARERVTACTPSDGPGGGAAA

[20] = target: 5-hydroxytryptamine receptor 1A (Homo sapiens, UniProt P08908); test: Displacement of [3H]Way100635 from human recombinant 5-HT1A receptor expressed in CHO cells after 90 mins by scintillation counting analysis; type: cell-based
Chain of 5-hydroxytryptamine receptor 1A (P08908 whole entry): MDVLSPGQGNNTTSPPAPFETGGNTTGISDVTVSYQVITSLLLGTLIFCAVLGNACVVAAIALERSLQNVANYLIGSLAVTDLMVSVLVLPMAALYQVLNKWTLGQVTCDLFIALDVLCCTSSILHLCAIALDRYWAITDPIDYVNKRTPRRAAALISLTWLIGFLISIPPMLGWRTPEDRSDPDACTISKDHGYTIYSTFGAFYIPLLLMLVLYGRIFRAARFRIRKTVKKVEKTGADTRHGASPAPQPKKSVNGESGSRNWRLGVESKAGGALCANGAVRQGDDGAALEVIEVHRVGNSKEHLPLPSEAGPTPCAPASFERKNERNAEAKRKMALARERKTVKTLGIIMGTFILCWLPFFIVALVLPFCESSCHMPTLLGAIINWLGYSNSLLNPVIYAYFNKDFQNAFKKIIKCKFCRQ

[21] = Displacement of [3H]Flunitrazepam from BZP receptor in rat brain after 90 mins by scintillation counting analysis; type: tissue-based
[22] = target: Alpha-2C adrenergic receptor (Homo sapiens, UniProt P18825); test: Displacement of [3H]Rauwolscine from human recombinant alpha2C-adrenoceptor expressed in MDCK cells after 90 mins by scintillation counting analysis; type: cell-based
Chain of Alpha-2C adrenergic receptor (P18825 whole entry): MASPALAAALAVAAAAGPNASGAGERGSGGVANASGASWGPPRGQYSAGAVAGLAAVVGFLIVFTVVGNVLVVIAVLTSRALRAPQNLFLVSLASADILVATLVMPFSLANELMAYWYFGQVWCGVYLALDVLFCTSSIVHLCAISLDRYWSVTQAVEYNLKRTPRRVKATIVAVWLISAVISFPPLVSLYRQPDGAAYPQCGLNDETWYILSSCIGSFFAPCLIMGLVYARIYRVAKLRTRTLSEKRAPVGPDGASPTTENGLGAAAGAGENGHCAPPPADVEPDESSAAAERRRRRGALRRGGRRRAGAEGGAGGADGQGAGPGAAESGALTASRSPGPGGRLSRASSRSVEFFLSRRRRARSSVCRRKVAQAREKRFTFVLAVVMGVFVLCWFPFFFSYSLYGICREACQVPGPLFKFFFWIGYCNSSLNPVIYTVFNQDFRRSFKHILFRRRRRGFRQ

[23] = target: Alpha-1A adrenergic receptor (Homo sapiens, UniProt P35348); test: Displacement of [3H]Prazosin from human recombinant alpha1A-adrenoceptor after 90 mins by scintillation counting analysis
Translocator protein = Translocator protein (Rattus norvegicus, UniProt P16257); test: Displacement of [3H]PK11195 from PBR in rat brain after 90 mins by scintillation counting analysis; type: tissue-based
[24] = target: T1, 5-hydroxytryptamine receptor 3A; test: Antagonist activity at mouse 5-HT3A receptor expressed in Xenopus oocytes assessed as reduction of 5HT-induced current by two-electrode voltage clamp technique; type: cell-based, Oocyte

Chain of D(3) dopamine receptor (P35462 whole entry): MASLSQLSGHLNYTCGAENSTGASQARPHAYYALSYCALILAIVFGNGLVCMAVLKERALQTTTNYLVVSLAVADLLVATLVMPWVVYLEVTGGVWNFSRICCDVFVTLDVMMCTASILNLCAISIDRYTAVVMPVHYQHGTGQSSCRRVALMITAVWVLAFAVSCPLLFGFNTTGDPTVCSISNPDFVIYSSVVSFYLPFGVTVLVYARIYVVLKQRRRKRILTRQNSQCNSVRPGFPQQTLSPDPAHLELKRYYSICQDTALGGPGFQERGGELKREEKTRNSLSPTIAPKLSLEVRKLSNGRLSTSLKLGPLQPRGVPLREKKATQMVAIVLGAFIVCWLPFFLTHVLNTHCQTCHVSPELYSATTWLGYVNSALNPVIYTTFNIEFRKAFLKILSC

Ki (D(3) dopamine receptor): > 10000 nM | Ki [1]: 80 nM | Ki [2]: 1320 nM | Ki [5]: 565 nM | Ki [6]: 466 nM | Ki [7]: > 10000 nM | Ki [8]: > 10000 nM | Ki [9]: > 10000 nM | Ki (D(1B) dopamine receptor): > 10000 nM | Ki [10]: > 10000 nM | Ki [11]: > 10000 nM | Ki [12]: > 10000 nM | Ki [14]: 1160 nM | Ki [16]: 243 nM | Ki [17]: > 10000 nM | Ki [18]: > 10000 nM | Ki [19]: > 10000 nM | Ki [20]: > 10000 nM | Ki [21]: > 10000 nM | Ki [22]: 840 nM | Ki [23]: > 10000 nM | Ki (Translocator protein): > 10000 nM | IC50 [24]: 260 nM
SMILES: Cl.NC1=Nc2ccc(Cl)cc2CN1
Activity (Mus musculus [3]): Non-toxic | Activity (Mus musculus [4]): Non-toxic | ED50 (Mus musculus [13]): 0.23 mg/kg | Ki [15]: 2650 nM | pKi [15]: 5.6

Source: ChEMBL document CHEMBL2434905, “2-Amino-6-chloro-3,4-dihydroquinazoline: A novel 5-HT3 receptor antagonist with antidepressant character” (Bioorg Med Chem Lett, 2013)
